Laboratory results taken from US10995104B2, “Catalysts for reversing formaldehyde adducts and crosslinks” (Roche Molecular Systems, Inc., priority 2017, dated 2021).

Tested on: methylene-bis-dAMP dimer
Test: Reversal of cross-linking of the methylene-bis-dAMP dimer with catalysts, monitored by HPLC
Conditions: 5.0 mM catalyst, 1.0 mM dAMP dimer, 50 mM phosphate buffer pH 5.0, 60° C., aliquots at 10-90 minutes (FIG. 3)
Protocol: Reverse crosslinking of the methylene-bis-dAMP dimer (as shown in FIG. 2) were monitored by HPLC. […] For each reaction mixture, an aliquot (10 μl) was taken at 10 minutes, 20 minutes, 40 minutes, 60 minutes and 90 minutes.

| Structure (SMILES) | reversal of cross-linking (shown as % of dAMP produced), rate compared with no catalyst |
| --- | --- |
| Cl.Nc1ccccc1B(O)O [Compound 2, 2-Aminophenylboronic acid] | rates that are much faster than when no catalyst was added |
| Cc1ccc(N)c(B(O)O)c1 [Compound 3, (2-Amino-5-methylphenyl)boronic acid] | rates that are much faster than when no catalyst was added |
| CCOP(=O)(OCC)C(N)c1ccccc1.Cl (stereo not shown) [Compound 6, (Aminophenylmethyl)phosphonic acid diethyl ester] | rates that are much faster than when no catalyst was added |
| [Br][Bi]([Br])[Br] [Compound 7, Bismuth (III) bromide] | rates that are much faster than when no catalyst was added |
